Data from US20170320870A1 (Medical Research Council Technology, priority 2009, published 2017).
Where a name gives a salt, the structure may show the parent alone.

target: T1, LRRK2 wild type (recombinant human, catalytic domain amino acids 970-2527, GST-tagged) (Homo sapiens, UniProt Q5S007); test: LRRK2 wild type protein kinase assay ([γ-33P] ATP, peptide substrate […]), IC50; type: biochemical; details: LRRK2 (variant not given); read-out: Potency score, LRRK2 IC50
T1 construct: The wild type used was recombinant human, catalytic domain (amino acids 970-2527) GST-tagged, expressed in insect cells; GST; purchased Invitrogen Corporation PV4873; host or cells: insect cells
T1 sequence (Q5S007 970-2527): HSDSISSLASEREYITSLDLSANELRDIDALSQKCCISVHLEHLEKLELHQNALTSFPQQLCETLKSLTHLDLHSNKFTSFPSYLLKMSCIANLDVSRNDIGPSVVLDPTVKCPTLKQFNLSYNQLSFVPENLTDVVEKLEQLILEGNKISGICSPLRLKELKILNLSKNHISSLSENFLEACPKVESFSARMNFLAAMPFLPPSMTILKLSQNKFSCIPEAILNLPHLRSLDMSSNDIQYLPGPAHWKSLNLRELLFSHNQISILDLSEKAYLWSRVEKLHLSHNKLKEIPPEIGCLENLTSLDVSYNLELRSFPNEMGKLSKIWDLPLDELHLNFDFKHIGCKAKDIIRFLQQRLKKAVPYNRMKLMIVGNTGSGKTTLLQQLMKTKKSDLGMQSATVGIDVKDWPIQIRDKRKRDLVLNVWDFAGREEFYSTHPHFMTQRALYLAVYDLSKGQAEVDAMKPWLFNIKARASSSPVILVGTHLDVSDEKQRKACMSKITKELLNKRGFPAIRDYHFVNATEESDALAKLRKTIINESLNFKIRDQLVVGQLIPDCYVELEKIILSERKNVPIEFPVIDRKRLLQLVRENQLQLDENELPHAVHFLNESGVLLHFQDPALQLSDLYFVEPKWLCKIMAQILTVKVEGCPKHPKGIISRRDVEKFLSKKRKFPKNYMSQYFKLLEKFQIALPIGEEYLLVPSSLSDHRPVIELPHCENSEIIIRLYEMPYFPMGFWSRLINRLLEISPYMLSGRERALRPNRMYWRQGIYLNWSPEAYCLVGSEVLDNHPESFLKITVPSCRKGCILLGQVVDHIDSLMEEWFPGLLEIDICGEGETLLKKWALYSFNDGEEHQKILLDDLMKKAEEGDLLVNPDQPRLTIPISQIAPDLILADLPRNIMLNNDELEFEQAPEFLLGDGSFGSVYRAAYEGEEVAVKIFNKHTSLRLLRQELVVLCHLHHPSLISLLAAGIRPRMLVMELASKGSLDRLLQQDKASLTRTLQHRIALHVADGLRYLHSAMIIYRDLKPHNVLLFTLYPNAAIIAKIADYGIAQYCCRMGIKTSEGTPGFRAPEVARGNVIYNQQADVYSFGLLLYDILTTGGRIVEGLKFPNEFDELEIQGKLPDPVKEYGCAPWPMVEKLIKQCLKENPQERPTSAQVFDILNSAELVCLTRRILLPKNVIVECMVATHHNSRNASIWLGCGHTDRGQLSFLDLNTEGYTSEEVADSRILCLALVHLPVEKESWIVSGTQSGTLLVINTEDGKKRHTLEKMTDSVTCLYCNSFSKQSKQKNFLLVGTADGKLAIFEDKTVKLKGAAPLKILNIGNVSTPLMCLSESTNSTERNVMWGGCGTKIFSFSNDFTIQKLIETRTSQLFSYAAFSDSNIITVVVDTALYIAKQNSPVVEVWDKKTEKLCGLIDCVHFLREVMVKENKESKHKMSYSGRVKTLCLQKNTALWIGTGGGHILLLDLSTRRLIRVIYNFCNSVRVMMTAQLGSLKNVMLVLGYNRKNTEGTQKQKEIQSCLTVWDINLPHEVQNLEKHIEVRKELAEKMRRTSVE
In short: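 IC50 derived from duplicate 10-point titrations, with 33P incorporation into a 100 μM peptide counted after P81 filter capture. Roughly 5 nM unactivated kinase reacted with Mg/[γ-33P]ATP for 180 min at room temperature (~21 °C), pH 7.5 Tris buffer containing 10 mM MgCl2, EGTA and DTT; acid-quenched.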

Row | Compound | IC50
1 | Cc1n[nH]c2ccnc(Oc3cccc(F)c3)c12 [Example 117, 4-(3-Fluoro-phenoxy)-3-methyl-1H-pyrazolo [4,3-c]pyridine] | 100 to 1000 nM
2 | Cc1n[nH]c2ccnc(Nc3cccc(N4CCOCC4)c3)c12 [Example 80, (3-Methyl-1H-pyrazolo[4,3-c]pyridin-4-yl)-(3-morpholin-4-yl-phenyl)-aniline] | 1000 to 10000 nM
3 | Cc1n[nH]c2ccnc(CC3CCCCC3)c12 [Example 126, 4-Cyclohexylmethyl-3-methyl-1H-pyrazolo[4,3-c]pyridine] | 1000 to 10000 nM
4 | Cc1n[nH]c2ccnc(NCC3CCOCC3)c12 [Example 17] | 1000 to 10000 nM
5 | Cc1n[nH]c2ccnc(NC3CCOCC3)c12 [Example 4, (3-Methyl-1H-pyrazolo[4,3-c]pyridin-4-yl)-(tetrahydro-pyran-4-yl)-amine] | 100 to 1000 nM
6 | Cc1n[nH]c2ccnc(N[C@@H](C)c3ccccc3)c12 [Example 29, (3-Methyl-1H-pyrazolo[4,3-c]pyridin-4-yl)-((S)-1-phenyl-ethyl)-amine] | 1000 to 10000 nM
7 | Cc1n[nH]c2ccnc(Nc3ccc4cnn(C)c4c3)c12 [Example 90, (1-Methyl-1H-indazol-6-yl)-(3-methyl-1H-pyrazolo[4,3-c]pyridin-4-yl)-amine] | 100 to 1000 nM
8 | Cc1n[nH]c2ccnc(Nc3ccccc3)c12 [Example 70, (3-Methyl-1H-pyrazolo[4,3-c]pyridin-4-yl)-phenyl-amine] | 100 to 1000 nM
9 | Cc1n[nH]c2ccnc(Nc3cccc(Br)c3)c12 [Example 67, (3-Bromo-phenyl)-(3-methyl-1H-pyrazolo[4,3-c]pyridin-4-yl)-amine] | 100 to 1000 nM
10 | Cc1n[nH]c2ccnc(N3CCN(C)CC3)c12 [Example 5, 3-Methyl-4-(4-methyl-piperazin-1-yl)-1H-pyrazolo[4,3-c]pyridine] | 1000 to 10000 nM
11 | Cc1n[nH]c2ccnc(Nc3ccc4c(cnn4C)c3)c12 [Example 99, (1-Methyl-1H-indazol-5-yl)-(3-methyl-1H-pyrazolo[4,3-c]pyridin-4-yl)-amine] | 100 to 1000 nM
12 | Cc1n[nH]c2ccnc(N[C@H]3CC[C@H](C)CC3)c12 [Example 34, Trans-(4-Methyl-cyclohexyl)-(3-methyl-1H-pyrazolo[4,3-c]pyridin-4-yl)-amine] | 100 to 1000 nM
13 | CC[C@@H](C)Nc1nccc2[nH]nc(C)c12 [Example 37, ((R)-sec-Butyl)-(3-methyl-1H-pyrazolo[4,3-c]pyridin-4-yl)-amine] | 1000 to 10000 nM
14 | Cc1n[nH]c2ccnc(N[C@H](CO)C(C)C)c12 [Example 28, (S)-3-Methyl-2-(3-methyl-1H-pyrazolo[4,3-c]pyridin-4-ylamino)-butan-1-ol] | 1000 to 10000 nM
15 | Cc1n[nH]c2ccnc(Nc3ccc4cn(C)nc4c3)c12 [Example 64, (2-Methyl-2H-indazol-6-yl)-(3-methyl-1H-pyrazolo[4,3-c]pyridin-4-yl)-amine] | 1000 to 10000 nM
16 | Cc1n[nH]c2ccnc(N(C)CC(C)C)c12 [Example 91, Isobutyl-methyl-(3-methyl-1H-pyrazolo[4,3-cc]pyridin-4-yl)-amine] | 1000 to 10000 nM
17 | Cc1n[nH]c2ccnc(OC3CCCC3)c12 [Example 115, 4-Cyclopentyloxy-3-methyl-1H-pyrazolo[4,3-c] pyridine] | < 100 nM
18 | Cc1n[nH]c2ccnc(NCC(C)(C)C)c12 [Example 32, (2,2-Dimethyl-propyl)-(3-methyl-1H-pyrazolo[4,3-c]pyridin-4-yl)-amine] | 1000 to 10000 nM
19 | Cc1n[nH]c2ccnc(N3CCOCC3)c12 [Example 10, 3-Methyl-4-morpholin-4-yl-1H-pyrazolo[4,3-c]pyridine] | 1000 to 10000 nM
20 | Cc1n[nH]c2ccnc(NC3CCN(C(=O)C4CCC4)CC3)c12 [Example 104, Cyclobutyl-[4-(3-methyl-1H-pyrazolo[4,3-c]pyridin-4-ylamino)-piperidin-1-yl]-methanone] | 1000 to 10000 nM
21 | CCOc1cccc(Nc2nccc3[nH]nc(C)c23)c1 [Example 71, (3-Ethoxy-phenyl)-(3-methyl-1H-pyrazolo[4,3-c]pyridin-4-yl)-amine] | 1000 to 10000 nM
22 | Cc1n[nH]c2ccnc(Nc3ccc(-n4cncn4)cc3)c12 [Example 96, (3-Methyl-1H-pyrazolo[4,3-c]pyridin-4-yl)-(4-1,2,4-triazol-1-yl-phenyl)-amine hydrochloride salt] | 100 to 1000 nM

The remaining lines, values ahead:

Row | IC50 | Compound
23 | 100 to 1000 nM | CCN(CC)CC1CCCN(C(=O)CCc2n[nH]c3ccnc(NC4CCCCC4)c23)C1 (centres unmarked) [Example 240, 3-(4-Cyclohexyl-amino-1H-pyrazolo[4,3-c]pyridin-3-yl)-1-(3-diethylaminomethyl-piperidin-1-yl)-propan-1-one]
24 | 100 to 1000 nM | Cn1ncnc1C1CCCN(C(=O)CCc2n[nH]c3ccnc(NC4CCCCC4)c23)C1 (centres unmarked) [Example 239, 3-(4-Cyclohexylamino-1H-pyrazolo[4,3-c]pyridin-3-yl)-1-[3-(2-methyl-2H-1,2,4-triazol-3-yl)-piperidin-1-yl]-propan-1-one]
25 | < 100 nM | O=C(Nc1ccncc1)c1ccc(CCc2n[nH]c3ccnc(NC4CCCCC4)c23)cc1 [Example 256, 4-[2-(4-Cyclohexylamino-1H-pyrazolo[4,3-c]pyridin-3-yl)-ethyl]-N-pyridin-4-yl-benzamide]
26 | 1000 to 10000 nM | O=C(CCc1n[nH]c2ccnc(NC3CCCCC3)c12)NC1CC1 [Example 171, 3-(4-Cyclohexylamino-1H-pyrazolo[4,3-c]pyridin-3-yl)-N-cyclopropyl-propionamide]
27 | < 100 nM | CC(C)CN(C)C(=O)c1ccc(CCc2n[nH]c3ccnc(NC4CCCCC4)c23)cc1 [Example 249, 4-[2-(4-Cyclohexylamino-1H-pyrazolo[4,3-c]pyridin-3-yl)-ethyl]-N-isobutyl-N-methyl-benzamide]
28 | < 100 nM | O=C(Nc1ccc(CCc2n[nH]c3ccnc(NC4CCCCC4)c23)cc1)c1cccnc1 [Example 266, N-{4-[2-(4-Cyclohexylamino-1H-pyrazolo[4,3-c]pyridin-3-yl)-ethyl]-phenyl}-nicotinamide]
29 | 100 to 1000 nM | c1cc2[nH]nc(-c3ccc(N4CCOCC4)cc3)c2c(NC2CCCCC2)n1 [Example 152, Cyclohexyl-[3-(4-morpholin-4-yl-phenyl)-1H-pyrazolo[4,3-c]pyridin-4-yl]-amine]
30 | 100 to 1000 nM | CN1CCN(C(=O)CCc2n[nH]c3ccnc(NC4CCCCC4)c23)CC1c1ccccc1 (centres unmarked) [Example 245, 3-(4-Cyclohexylamino-1H-pyrazolo[4,3-c]pyridin-3-yl)-1-(4-methyl-3-phenyl-piperazin-1-yl)-propan-1-one]
31 | 1000 to 10000 nM | O=C(CCc1n[nH]c2ccnc(NC3CCCCC3)c12)Nc1cccc(F)c1 [Example 187, 3-(4-Cyclohexylamino-1H-pyrazolo[4,3-c]pyridin-3-yl)-N-(3-fluoro-phenyl)-propionamide]
32 | < 100 nM | CC1CN(C(=O)CCc2n[nH]c3ccnc(NC4CCCCC4)c23)C1 [Example 241, 3-(4-Cyclohexyl-amino-1H-pyrazolo [4,3-c]pyridin-3-yl)-1-(3-methyl-azetidin-1-yl)-propan-1-one]
33 | 1000 to 10000 nM | Cc1n[nH]c2ccnc(NCc3ccc(C#N)cc3)c12 [Example 327, 4-[(3-Methyl-1H-pyrazolo[4,3-c]pyridin-4-ylamino)-methyl]-benzonitrile]
34 | 100 to 1000 nM | O=C(CCc1n[nH]c2ccnc(NC3CCCCC3)c12)N1CCCCC1c1ccccc1 (centres unmarked) [Example 201, 3-(4-Cyclohexylamino-1H-pyrazolo[4,3-c]pyridin-3-yl)-1-(2-phenyl-piperidin-1-yl)-propan-1-one]
35 | < 100 nM | CC1CN(C(=O)c2ccc(CCc3n[nH]c4ccnc(NC5CCCCC5)c34)cc2)C1 [Example 251, {4-[2-(4-Cyclohexylamino-1H-pyrazolo[4,3-c]pyridin-3-yl)-ethyl]-phenyl}-(3-methyl-azetidin-1-yl)-methanone]
36 | < 100 nM | CC(=O)Nc1cccc(NC(=O)c2ccc(CCc3n[nH]c4ccnc(NC5CCCCC5)c34)cc2)c1 [Example 255, N-(3-Acetylamino-phenyl)-4-[2-(4-cyclohexylamino-1H-pyrazolo[4,3-c]pyridin-3-yl)-ethyl]-benzamide]
37 | 100 to 1000 nM | O=C(CCc1n[nH]c2ccnc(NC3CCCCC3)c12)N1CCCC(c2ccccc2)C1 (centres unmarked) [Example 170, 3-(4-Cyclohexylamino-1H-pyrazolo[4,3-c]pyridin-3-yl)-1-(3-phenyl-piperidin-1-yl)-propan-1-one]
38 | 100 to 1000 nM | Cc1n[nH]c2ccnc(O[C@@H]3CCC[C@@H]3C)c12 (racemic) [Example 293, Cis-3-Methyl-4-(2-methyl-cyclopentyl-oxy)-1H-pyrazolo [4,3-c]pyridine]
39 | < 100 nM | c1ccc(CCc2n[nH]c3ccnc(NC4CCCCC4)c23)cc1 [Example 213, Cyclohexyl-(3-phenethyl-1H-pyrazolo[4,3-c]pyridin-4-yl)-amine]
40 | 100 to 1000 nM | CC1CN(C(=O)CCc2n[nH]c3ccnc(NC4CCCCC4)c23)CCN1C (centres unmarked) [Example 244, 3-(4-Cyclohexylamino-1H-pyrazolo [4,3-c]pyridin-3-yl)-1-(3,4-dimethyl-piperazin-1-yl)-propan-1-one]
41 | 100 to 1000 nM | c1cc2[nH]nc(-c3cnc(N4CCOCC4)nc3)c2c(NC2CCCCC2)n1 [Example 160, Cyclohexyl-[3-(2-morpholin-4-yl-pyrimidin-5-yl)-1H-pyrazolo[4,3-c]pyridin-4-yl]-amine]
42 | 1000 to 10000 nM | Cc1n[nH]c2ccnc(CCC(C)C)c12 [Example 128, 3-Methyl-4-(3-methyl-butyl)-1H-pyrazolo[4,3-c]pyridine]
43 | 100 to 1000 nM | CC(C)CN(C)C(=O)CCc1n[nH]c2ccnc(NC3CCCCC3)c12 [Example 182, 3-(4-Cyclohexylamino-1H-pyrazolo[4,3-c]pyridin-3-yl)-N-isobutyl-N-methyl-propionamide]
44 | 100 to 1000 nM | O=C(CCc1n[nH]c2ccnc(NC3CCCCC3)c12)N1CCCCC1 [Example 169, 3-(4-Cyclohexylamino-1H-pyrazolo[4,3-c]pyridin-3-yl)-1-piperidin-1-yl-propan-1-one]
